Biological target: T1, human 20S proteasome (H20S) (Homo sapiens, UniProt P28074+Q99436)
T1 construct: gene PSMB5; with Proteasome subunit beta type-6 (caspase-like site); Proteasome subunit alpha type-6; Proteasome subunit alpha type-2; Proteasome subunit alpha type-4; Proteasome subunit alpha type-7; Proteasome subunit alpha type-5; Proteasome subunit alpha type-1; Proteasome subunit alpha type-3; Proteasome subunit beta type-3; Proteasome subunit beta type-2; Proteasome subunit beta type-1; Proteasome subunit beta type-4
Assay: inhibition of boc-RLR-AMC hydrolysis
Format: biochemical

inhibition at 40 µM: 94 to 100%
SMILES: CC(=O)N[C@@H](CC(C)C)C(=O)N[C@@H](CC(C)C)C(=O)N[C@H](C=O)CCCNC(=N)N [leupeptin]

Source: article PMC9287138, “Proteasome activator 28γ (PA28γ) allosterically activates trypsin-like proteolysis by binding to the α-ring of the 20S proteasome” (The Journal of Biological Chemistry, 2022)
